Data taken from the supplement of paper PMC5908809.

Assays:
[1] = system: normal primary NK cells, pool 1 (3 donors) (IL-2 2.5 ng/mL); test: drug sensitivity score (DSS) (DSS units); higher = more sensitive; extreme values may be limits of the assay; conditions: 72 h
NK-YS (IL-2 2.5 ng/mL) [2] = test: as above; conditions: 72 h
SNK-6 (IL-2 2.5 ng/mL) [3] = test: as above; conditions: 72 h
NKL (IL-2 2.5 ng/mL) [4] = test: as above; conditions: 72 h
[5] = system: normal primary NK cells, pool 3 (3 donors) (IL-2 2.5 ng/mL); test: as above; conditions: 72 h
[6] = system: normal primary NK cells, pool 1 (3 donors), resting (IL-2 0 ng/mL); test: as above; conditions: 72 h
KAI3 (IL-2 2.5 ng/mL) [7] = test: as above; conditions: 72 h
[8] = system: normal primary NK cells, pool 2 (3 donors) (IL-2 2.5 ng/mL); test: as above; conditions: 72 h
IMC-1 (IL-2 20 ng/mL) [9] = test: as above; conditions: 72 h
KHYG-1 (IL-2 2.5 ng/mL) [10] = test: as above; conditions: 72 h
DERL-7 (IL-2 2.5 ng/mL) [11] = test: as above; conditions: 72 h
YT (IL-2 2.5 ng/mL) [12] = test: as above; conditions: 72 h
NK-92 (IL-2 2.5 ng/mL) [13] = test: as above; conditions: 72 h
[14] = system: normal NK cells expanded with K562-aAPC; test: as above; conditions: 72 h; IL-2 2.5 ng/mL
Method: (§1)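 Drug sensitivity and resistance testing on K562-aAPC-expanded normal NK cells: 5 concentrations (10-fold steps over a 10,000-fold range), 72 h at 37 °C, viability by CellTiter-Glo normalised to DMSO and benzethonium chloride controls; DSS from the fitted curve.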

[15] = system: normal NK cells expanded with K562-aAPC; test: percent inhibition of viability; higher = more inhibition; conditions: 72 h, IL-2 2.5 ng/mL
Method: as §1

[16] = system: normal primary NK cells, pool 1 (3 donors) (IL-2 2.5 ng/mL); test: as above; conditions: 72 h
NK-YS (IL-2 2.5 ng/mL) [17] = test: as above; conditions: 72 h
SNK-6 (IL-2 2.5 ng/mL) [18] = test: as above; conditions: 72 h
NKL (IL-2 2.5 ng/mL) [19] = test: as above; conditions: 72 h
[20] = system: normal primary NK cells, pool 3 (3 donors) (IL-2 2.5 ng/mL); test: as above; conditions: 72 h
[21] = system: normal primary NK cells, pool 1 (3 donors), resting (IL-2 0 ng/mL); test: as above; conditions: 72 h
KAI3 (IL-2 2.5 ng/mL) [22] = test: as above; conditions: 72 h
[23] = system: normal primary NK cells, pool 2 (3 donors) (IL-2 2.5 ng/mL); test: as above; conditions: 72 h
IMC-1 (IL-2 20 ng/mL) [24] = test: as above; conditions: 72 h
KHYG-1 (IL-2 2.5 ng/mL) [25] = test: as above; conditions: 72 h
DERL-7 (IL-2 2.5 ng/mL) [26] = test: as above; conditions: 72 h
YT (IL-2 2.5 ng/mL) [27] = test: as above; conditions: 72 h
NK-92 (IL-2 2.5 ng/mL) [28] = test: as above; conditions: 72 h

O=C(O)c1ccc2c(c1)nc(Nc1cccc(Cl)c1)c1ccncc12 [Silmitasertib] (max concentration tested 10000 nM)
Conditions	drug sensitivity score
DERL-7 (IL-2 2.5 ng/mL) [11]	7.04
IMC-1 (IL-2 20 ng/mL) [9]	2.35
KAI3 (IL-2 2.5 ng/mL) [7]	7.33
KHYG-1 (IL-2 2.5 ng/mL) [10]	7.83
NK-92 (IL-2 2.5 ng/mL) [13]	4.09
NK-YS (IL-2 2.5 ng/mL) [2]	6.72
NKL (IL-2 2.5 ng/mL) [4]	6.45
SNK-6 (IL-2 2.5 ng/mL) [3]	4.04
YT (IL-2 2.5 ng/mL) [12]	7.24
[1]	7.64
[5]	5.54
[6]	2.91
[8]	5.68
[14]	8.41

percent inhibition of viability [%]
Conditions	1 nM	10 nM	100 nM	1000 nM	10000 nM
DERL-7 (IL-2 2.5 ng/mL) [26]	-3.79	0.67	-2.32	10.4	96
IMC-1 (IL-2 20 ng/mL) [24]	7.09	6.12	5.81	-2.16	48.4
KAI3 (IL-2 2.5 ng/mL) [22]	4.28	8.25	8.8	16.1	84.8
KHYG-1 (IL-2 2.5 ng/mL) [25]	2.32	3.89	1.97	14.4	98.1
NK-92 (IL-2 2.5 ng/mL) [28]	6.03	10.9	-12.3	-16.9	90.2
NK-YS (IL-2 2.5 ng/mL) [17]	5.01	1.7	1.66	10.8	88.7
NKL (IL-2 2.5 ng/mL) [19]	11.5	10.7	2.41	13.4	76.3
SNK-6 (IL-2 2.5 ng/mL) [18]	4.5	3.13	-1.8	-10.8	85.2
YT (IL-2 2.5 ng/mL) [27]	5.21	5.15	4.79	17.7	79.9
[15]	6.72	1.13	2.51	24.6	85.7
[16]	-9.41	-7.07	-7.39	18.1	85.6
[20]	-4.66	-2.89	-4.84	9.91	70.3
[21]	-25.1	-31.8	-43.9	-9.05	63.9
[23]	-8.83	-6.36	2.09	8.72	76.5
